In patent US20250171434A1, “SEC61 INHIBITORS AND USE THEREOF” (KEZAR LIFE SCIENCES, INC., priority 2022, published 2025):

Experiments:
[1] = tested on: PD1-ss+10aa/Gaussia Luciferase; test: Dox-Induced PD1-ss-Gluc Assay; format: cell-based; conditions: Flp-In 293 T-REx cells, 24 hours with doxycycline; Table 1; read-out: 24 hr Dox Inducible PD1ssGluc 293FRT/TO: Mean IC50
Outline: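 Doxycycline-induced expression of a PD1-ss+10aa/Gaussia luciferase reporter is measured in stable Flp-In 293 T-REx cells. Compound dilutions containing doxycycline are added one day after plating and incubated at 37 °C, 5% CO2. Values for unassigned stereocentres refer to stereoisomer mixtures.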

[2] = tested on: IL-2-FL/Gaussia Luciferase; test: Dox Inducible IL2-FL-Gluc Assay; format: cell-based; conditions: Table 1; for IC50: Flp-In 293 T-REx cells, 24 hours with doxycycline, read-out: 24 hr Dox Inducible IL2FLGluc 293FRT/TO: Mean IC50; for 24 hr Dox Inducible IL2FLGluc 293FRT/TO: IL2/PD1: ratio of IC50s IL2/PD1
Outline: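 Flp-In 293 T-REx cells stably carrying doxycycline-inducible full-length IL-2 (aa 1-153) fused at its C-terminus to Gaussia luciferase, selected with hygromycin and blasticidin. Cells were plated the day before, then treated with compounds in DMSO/media containing doxycycline at 37° C, 5% CO2.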

CD47(ss + 10)Gluc = test: Dox-Induced CD47-ss-Gluc Assay; format: cell-based; conditions: Flp-In 293 T-REx cells, 24 hours with doxycycline; Table 1; read-out: 24 hr Dox Inducible CD47(ss + 10)Gluc 293FRT/TO: Mean IC50
[3] = tested on: IL6R-ss+10aa/Gaussia Luciferase; test: Dox-induced IL-6R-ss-Gluc Assay; format: cell-based; conditions: Table 1; for IC50: Flp-In 293 T-REx cells, 24 hours with doxycycline, read-out: 24hr Dox Inducible IL6R(ss + 10)Gluc 293FRT/TO: Mean IC50; for 24hr Dox Inducible IL6R(ss + 10)Gluc 293FRT/TO: IL6R/PD1: ratio of IC50s IL6R/PD1
Outline: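 Flp-In 293 T-REx cells stably carrying a doxycycline-inducible IL6R signal sequence+10 aa fused to Gaussia luciferase. Cells plated the day before; compound dilutions added in DMSO/media containing doxycycline and incubated at 37 °C, 5% CO2.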

[4] = tested on: multiple myeloma cell line NCI-H929; test: H929 Cell Viability Assay; format: cell-based, human; conditions: Homo sapiens; NCI-H929 cells, 48 hours, Celltiter-Glo; read-out: 48 hr H929 Viability Celltiter-Glo: Mean EC50
Outline: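 NCI-H929 cells, resuspended in RPMI 1640 with 10% FBS and 2 mM glutamine, were treated with compound dilutions in DMSO/media and incubated 48 hours at 37° C, 5% CO2. Viability was read by CellTiter-Glo luminescence. Compounds drawn without stereochemistry were tested as stereoisomer mixtures.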

[5] = tested on: multiple myeloma cell line U266B1; test: U266 Cell Viability Assay; format: cell-based; conditions: Homo sapiens, U-266; U266B1 cells, 48 hours, Celltiter-Glo; read-out: 48 hr U266 Viability Celltiter-Glo: Mean EC50
Outline: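 Cells grown in RPMI 1640 with 10% FBS, 2 mM glutamine and penicillin/streptomycin were exposed to compound dilutions in DMSO/media for 48 hours at 37° C., 5% CO2. Viability was read by CellTiter-Glo luminescence. Undefined stereocentres mean data for stereoisomer mixtures.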

[6] = Liver Microsome Stability Assay, mouse; format: in vitro ADME; conditions: mouse liver microsomes 1.0 mg/mL, 1.0 uM compound, 37° C., 1 mM NADPH
Outline: (§1)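 Incubations at 37° C contain 1.0 mg/mL liver microsomes and 1.0 uM compound, with 1 mM NADPH present or absent. Time points are 0 and 30 minutes.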

[7] = Liver Microsome Stability Assay, rat; format: in vitro ADME; conditions: rat liver microsomes 1.0 mg/mL, 1.0 uM compound, 37° C., 1 mM NADPH
Outline: as §1

[8] = Liver Microsome Stability Assay, monkey; format: in vitro ADME; conditions: monkey liver microsomes 1.0 mg/mL, 1.0 uM compound, 37° C., 1 mM NADPH
Outline: as §1

[9] = Liver Microsome Stability Assay, human; format: in vitro ADME; conditions: human liver microsomes 1.0 mg/mL, 1.0 uM compound, 37° C., 1 mM NADPH
Outline: as §1

| SMILES | IC50 [1] [µM] | IC50 [2] [µM] | 24 hr Dox Inducible IL2FLGluc 293FRT/TO: IL2/PD1 [2] | IC50 (CD47(ss + 10)Gluc) [µM] | IC50 [3] [µM] | 24hr Dox Inducible IL6R(ss + 10)Gluc 293FRT/TO: IL6R/PD1 [3] | EC50 [4] [µM] | EC50 [5] [µM] | Liver Microsome Stability (Multiple Species): Mouse - % Remaining after 30 min w/ NADPH (%) [6] [%] | Liver Microsome Stability (Multiple Species): Rat - % Remaining after 30 min w/ NADPH (%) [7] [%] | Liver Microsome Stability (Multiple Species): Monkey - % Remaining after 30 min w/ NADPH (%) [8] [%] | Liver Microsome Stability (Multiple Species): Human - % Remaining after 30 min w/ NADPH (%) [9] [%] |
| --- | --- | --- | --- | --- | --- | --- | --- | --- | --- | --- | --- | --- |
| [2H]c1nc(/C=C/c2csc(NC(=O)c3cccn3Cc3ccnc(F)c3)n2)cn1C(C)C [Compound B21] | 0.065 | > 25 | >380 | > 25 | > 25 | >385 | 17.5 | 24.2 | 11 | 20 | <1 | <1 |
| O=C(Nc1nc(/C=C/C2CCOC2)cs1)c1cccn1Cc1ccnc(F)c1 (stereo not shown) [Compound B22, (E)-1-((2-fluoropyridin-4-yl)methyl)-N-(4-(2-(tetrahydrofuran-3-yl)vinyl)thiazol-2-yl)-1H-pyrrole-2-carboxamide] | > 25 | > 25 | – | > 25 | > 25 | – | > 25 | > 25 | 41 | 1 | <1 | 9 |
| O=C(Nc1nc(/C=C/c2ccc3occc3c2)cs1)c1cccn1Cc1ccnc(F)c1 [Compound B27, (E)-N-(4-(2-(benzofuran-5-yl)vinyl)thiazol-2-yl)-1-((2-fluoropyridin-4-yl)methyl)-1H-pyrrole-2-carboxamide] | 0.144 | 1.04 | 5.2 | 1.03 | 0.892 | 6 | > 25 | > 25 | 40 | 3 | 8 | 27 |
| O=C(Nc1nc(/C=C/c2cccc(F)c2)cs1)c1cccn1Cc1ccnc(F)c1 [Compound B28, (E)-1-((2-fluoropyridin-4-yl)methyl)-N-(4-(3-fluorostyryl)thiazol-2-yl)-1H-pyrrole-2-carboxamide] | 0.172 | 1.09 | 6.1 | 1.01 | 1.2 | 7 | 15 | > 25 | 72 | 39 | 22 | 70 |
